Here are results for 19 molecules from ChEMBL document CHEMBL1909046, “DrugMatrix in vitro pharmacology data”.

The target in test [1] is T1, Endothelin-1 receptor (Homo sapiens, UniProt P25101). Further: in other assays of this panel Not Active means under 50% inhibition at 10 µM.
T1 sequence (P25101 whole entry): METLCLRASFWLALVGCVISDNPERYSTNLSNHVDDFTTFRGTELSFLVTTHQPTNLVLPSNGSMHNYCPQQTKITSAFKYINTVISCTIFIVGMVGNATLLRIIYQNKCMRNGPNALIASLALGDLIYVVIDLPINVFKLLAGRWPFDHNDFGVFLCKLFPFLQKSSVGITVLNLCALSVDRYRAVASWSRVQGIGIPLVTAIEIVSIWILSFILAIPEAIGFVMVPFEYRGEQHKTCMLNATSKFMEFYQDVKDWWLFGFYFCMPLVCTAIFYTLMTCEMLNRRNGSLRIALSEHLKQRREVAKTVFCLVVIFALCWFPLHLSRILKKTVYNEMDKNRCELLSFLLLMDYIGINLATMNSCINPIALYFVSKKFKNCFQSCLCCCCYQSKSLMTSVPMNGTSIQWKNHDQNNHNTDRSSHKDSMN
The class given is cell membranes, Membrane. The conditions noted are these: cho-k1.

Test [2] deals with T2, Muscarinic acetylcholine receptor M5 (Homo sapiens, UniProt P08912).
T2 sequence (P08912 whole entry): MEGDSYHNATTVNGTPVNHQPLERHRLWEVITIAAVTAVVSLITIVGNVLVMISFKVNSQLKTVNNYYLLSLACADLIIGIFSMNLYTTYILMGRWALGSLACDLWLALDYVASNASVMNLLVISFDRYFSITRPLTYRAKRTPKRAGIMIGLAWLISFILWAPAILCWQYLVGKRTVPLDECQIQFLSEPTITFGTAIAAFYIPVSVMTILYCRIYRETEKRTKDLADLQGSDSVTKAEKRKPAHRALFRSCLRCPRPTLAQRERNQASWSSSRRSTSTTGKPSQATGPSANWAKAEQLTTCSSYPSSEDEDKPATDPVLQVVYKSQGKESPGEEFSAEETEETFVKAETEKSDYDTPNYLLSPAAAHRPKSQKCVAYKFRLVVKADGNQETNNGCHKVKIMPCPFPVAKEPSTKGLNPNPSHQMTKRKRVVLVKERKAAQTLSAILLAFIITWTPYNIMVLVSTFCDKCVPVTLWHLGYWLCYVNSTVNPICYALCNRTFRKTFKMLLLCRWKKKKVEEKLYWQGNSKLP
The format is cell membranes, CHO-K1, Membrane. The conditions noted are these: cho-k1.

The nature of test [3]: DRUGMATRIX: Potassium Channel [KATP] radioligand binding (ligand: [3H] Glyburide). The format is cell membranes, Membrane. The conditions noted are these: hit-t15, Not Active = under 50% inhibition at 10 µM.
Test [4] in a line: DRUGMATRIX: Glutamate, AMPA radioligand binding (ligand: [3H] AMPA). The class given is cell membranes, Rattus norvegicus, Wistar, Cerebral cortex, Membrane. The conditions noted are these: Not Active = under 50% inhibition at 10 µM.
Test [5] addresses Sigma non-opioid intracellular receptor 1 (Homo sapiens, UniProt Q99720). As to the kind of experiment: DRUGMATRIX: Sigma1 radioligand binding (ligand: [3H] Haloperidol). The class given is cell membranes, Jurkat, Membrane. The conditions noted are these: jurkat; Not Active = under 50% inhibition at 10 µM.
Test [6] in a line: DRUGMATRIX: Platelet-Derived Growth Factor (PDGF) radioligand binding (ligand: [125I] PDGF). The class given is cell-based. The conditions noted are these: nih3t3; Not Active = under 50% inhibition at 10 µM.

Each structure is given as a SMILES string.

Chain of Sigma non-opioid intracellular receptor 1 (Q99720 whole entry): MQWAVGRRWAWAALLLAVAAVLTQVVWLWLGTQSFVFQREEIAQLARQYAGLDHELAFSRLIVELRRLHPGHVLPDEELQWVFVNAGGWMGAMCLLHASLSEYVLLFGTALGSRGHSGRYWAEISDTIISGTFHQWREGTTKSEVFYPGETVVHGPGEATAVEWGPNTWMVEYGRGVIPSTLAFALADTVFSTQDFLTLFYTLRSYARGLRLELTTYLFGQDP

On to `COc1cc(/C=C/C(=O)O)ccc1O` [FERULATE], for which the IC50 result in test [1], in test [2], in test [3], in test [4], in test [5] and in test [6] was “Not Active” throughout. In addition, the Ki entry in test [3], in test [4] and in test [6] was “Not Active” each time.

Take `CC(C)(C#N)c1cc(Cn2cncn2)cc(C(C)(C)C#N)c1` [ANASTROZOLE]: the half-maximal inhibitory concentration (IC50) entry in test [1], in test [2], in test [3], in test [4], in test [5] and in test [6] was “Not Active” in each case. The Ki entry in test [3], in test [4] and in test [6] was “Not Active” each time.

For `COc1ccc(Cl)cc1C(=O)NCCc1ccc(S(=O)(=O)NC(=O)NC2CCCCC2)cc1` [GLYBURIDE], the half-maximal inhibitory concentration (IC50) entry in test [1] is “Not Active”; in test [2], “Not Active”; in test [3] (read-out: IC50) it was 3.8 nM; in test [4], “Not Active”; in test [5], “Not Active”; in test [6] it was “Not Active”. Besides, the values for the Ki in test [3] (read-out: Ki), in test [4] and in test [6] were 0.432 nM, “Not Active” and “Not Active”, respectively.

As to `CC(C)NCC(O)COc1ccc(CC(N)=O)cc1` (centres undefined) [ATENOLOL], the IC50 entry in test [1], in test [2], in test [3], in test [4], in test [5] and in test [6] was “Not Active” each time. Further, the Ki result in test [3], in test [4] and in test [6] was “Not Active” throughout.

`O=C(O)COC(=O)Cc1ccccc1Nc1c(Cl)cccc1Cl` [ACECLOFENAC]: the IC50 result in test [1], in test [2], in test [3], in test [4], in test [5] and in test [6] was “Not Active” throughout. For the same molecule, the Ki entry in test [3], in test [4] and in test [6] was “Not Active” in each case.

For `Cl.NC[C@H]1CC[C@H](C(=O)Oc2ccc(CCC(=O)O)cc2)CC1` [CETRAXATE HYDROCHLORIDE], the 50% inhibitory concentration (IC50) result in test [1], in test [2], in test [3], in test [4], in test [5] and in test [6] was “Not Active” throughout. Further, the inhibition constant Ki entry in test [3], in test [4] and in test [6] was “Not Active” in each case.

Turning to `CC(=O)[C@]1(O)Cc2c(O)c3c(c(O)c2[C@@H](O[C@H]2C[C@H](N)[C@H](O)[C@H](C)O2)C1)C(=O)c1ccccc1C3=O` [IDARUBICIN], the IC50 entry in test [1], in test [2], in test [3], in test [4], in test [5] and in test [6] was “Not Active” each time. The Ki entry in test [3], in test [4] and in test [6] was “Not Active” each time.

Take `C[C@@H]1[C@H](O)[C@@H](C)/C=C/C=C/C=C/C=C/C=C/C=C/C=C/[C@H](O[C@@H]2O[C@H](C)[C@@H](O)[C@H](N)[C@@H]2O)C[C@@H]2O[C@](O)(C[C@@H](O)C[C@@H](O)[C@H](O)CC[C@@H](O)C[C@@H](O)CC(=O)O[C@H]1C)C[C@H](O)[C@H]2C(=O)O` [AMPHOTERICIN B]: the 50% inhibitory concentration (IC50) entry in test [1], in test [2], in test [3], in test [4], in test [5] and in test [6] was “Not Active” throughout. In addition, the Ki entry in test [3], in test [4] and in test [6] was “Not Active” each time.

Turning to `O=C(O)c1ccccc1` [BENZOIC ACID], the half-inhibitory concentration (IC50) entry in test [1], in test [2], in test [3], in test [4], in test [5] and in test [6] was “Not Active” each time. Further, the inhibition constant Ki result in test [3], in test [4] and in test [6] was “Not Active” each time.

As to `C[C@]12CC[C@@H](O)C[C@@H]1CC[C@@H]1[C@@H]2CC[C@]2(C)C(=O)CC[C@@H]12` [ANDROSTERONE], the half-maximal inhibitory concentration (IC50) result in test [1], in test [2], in test [3], in test [4], in test [5] and in test [6] was “Not Active” each time. The inhibition constant Ki result in test [3], in test [4] and in test [6] was “Not Active” throughout.

As to `NCC(CC(=O)O)c1ccc(Cl)cc1` (centres undefined) [BACLOFEN], the IC50 entry in test [1], in test [2], in test [3], in test [4], in test [5] and in test [6] was “Not Active” in each case. Also, the Ki entry in test [3], in test [4] and in test [6] was “Not Active” throughout.

Regarding `O=C(O)CO` [GLYCOLIC ACID], the IC50 result in test [1], in test [2], in test [3], in test [4], in test [5] and in test [6] was “Not Active” each time. The Ki entry in test [3], in test [4] and in test [6] was “Not Active” in each case.

With `COc1ccccc1OCCNCC(O)COc1cccc2[nH]c3ccccc3c12` (centres undefined) [CARVEDILOL], the half-maximal inhibitory concentration (IC50) entry in test [1], in test [2], in test [3], in test [4], in test [5] and in test [6] was “Not Active” throughout. Also, the Ki entry in test [3], in test [4] and in test [6] was “Not Active” throughout.

As to `O=C(NCCN1CCOCC1)c1ccc(Cl)cc1` [MOCLOBEMIDE], the concentration for half-maximal inhibition (IC50) entry in test [1], in test [2], in test [3], in test [4], in test [5] and in test [6] was “Not Active” each time. Moreover, the Ki entry in test [3], in test [4] and in test [6] was “Not Active” throughout.

Regarding `C=CCO` [ALLYL ALCOHOL], the half-maximal inhibitory concentration (IC50) entry in test [1], in test [2], in test [3], in test [4], in test [5] and in test [6] was “Not Active” in each case. For the same molecule, the Ki result in test [3], in test [4] and in test [6] was “Not Active” throughout.

For `CC(C)Cc1ccc([C@H](C)C(=O)O)cc1` [DEXIBUPROFEN], the half-maximal inhibitory concentration (IC50) entry in test [1], in test [2], in test [3], in test [4], in test [5] and in test [6] was “Not Active” throughout. In addition, the Ki entry in test [3], in test [4] and in test [6] was “Not Active” each time.

As for `O=c1[nH]cnc2c1ncn2[C@H]1CC[C@@H](CO)O1` [DIDANOSINE], the half-inhibitory concentration (IC50) result in test [1], in test [2], in test [3], in test [4], in test [5] and in test [6] was “Not Active” throughout. Further, the inhibitory constant (Ki) result in test [3], in test [4] and in test [6] was “Not Active” each time.

As to `CC1(COc2ccc(CC3SC(=O)NC3=O)cc2)CCCCC1` (centres undefined) [CIGLITAZONE], the 50% inhibitory concentration (IC50) entry in test [1], in test [2], in test [3], in test [4], in test [5] and in test [6] was “Not Active” each time. The inhibition constant Ki entry in test [3], in test [4] and in test [6] was “Not Active” throughout.

With `NC(N)=Nc1nc(CSCCC(N)=NS(N)(=O)=O)cs1` [FAMOTIDINE], the IC50 entry in test [1], in test [2], in test [4], in test [5] and in test [6] was “Not Active” in each case. The Ki result in test [4] and in test [6] was “Not Active” in each case.
